Assay results from patent publication US6489469B1, “Method for storing or transporting erythritol solution” (Nikken Chemicals Co., Ltd., priority 1999, dated 2002).

System: Bacillus stearothermophilus IFO 12550
Experiment: Viable Count of Bacillus stearothermophilus IFO 12550 in Erythritol Solution (heat resistant bacteria)
Format: cell-based
Experimental: Erythritol solutions of respective concentrations in the range of from 30 to 70% were prepared. To these was inoculated Bacillus stearothermophilus IFO 12550 as a heat resistant bacterium in a population (concentration) of 10,000 cells/mL or more.
After the inoculation, the solutions were stored at 50, 60 or 75° C., respectively, for 56 days and the number of viable cell was determined daily. The determination of the number of viable cell was performed by in the same manner as in Example 1.

SMILES: OC[C@@H](O)[C@@H](O)CO [Erythritol Solution, erythritol]
- The Number of Viable Cell (50° C., 30% w/w, Day 0): 10000 or more cells/mL
- The Number of Viable Cell (50° C., 30% w/w, Day 3): 70 cells/mL
- The Number of Viable Cell (50° C., 30% w/w, Day 7): 60 cells/mL
- The Number of Viable Cell (50° C., 30% w/w, Day 14): 40 cells/mL
- The Number of Viable Cell (50° C., 30% w/w, Day 28): 60 cells/mL
- The Number of Viable Cell (50° C., 30% w/w, Day 56): 50 cells/mL
- The Number of Viable Cell (50° C., 40% w/w, Day 0): 10000 or more cells/mL
- The Number of Viable Cell (50° C., 40% w/w, Day 3): 40 cells/mL
- The Number of Viable Cell (50° C., 40% w/w, Day 7): 50 cells/mL
- The Number of Viable Cell (50° C., 40% w/w, Day 14): 50 cells/mL
- The Number of Viable Cell (50° C., 40% w/w, Day 28): 50 cells/mL
- The Number of Viable Cell (50° C., 40% w/w, Day 56): 60 cells/mL
- The Number of Viable Cell (50° C., 50% w/w, Day 0): 10000 or more cells/mL
- The Number of Viable Cell (50° C., 50% w/w, Day 3): 100 cells/mL
- The Number of Viable Cell (50° C., 50% w/w, Day 7): 100 cells/mL
- The Number of Viable Cell (50° C., 50% w/w, Day 14): 50 cells/mL
- The Number of Viable Cell (50° C., 50% w/w, Day 28): 70 cells/mL
- The Number of Viable Cell (50° C., 50% w/w, Day 56): 120 cells/mL
- The Number of Viable Cell (60° C., 30% w/w, Day 0): 10000 or more cells/mL
- The Number of Viable Cell (60° C., 30% w/w, Day 3): 90 cells/mL
- The Number of Viable Cell (60° C., 30% w/w, Day 7): 60 cells/mL
- The Number of Viable Cell (60° C., 30% w/w, Day 14): 90 cells/mL
- The Number of Viable Cell (60° C., 30% w/w, Day 28): 300 cells/mL
- The Number of Viable Cell (60° C., 30% w/w, Day 56): 0 cells/mL
- The Number of Viable Cell (60° C., 40% w/w, Day 0): 10000 or more cells/mL
- The Number of Viable Cell (60° C., 40% w/w, Day 3): 60 cells/mL
- The Number of Viable Cell (60° C., 40% w/w, Day 7): 70 cells/mL
- The Number of Viable Cell (60° C., 40% w/w, Day 14): 200 cells/mL
- The Number of Viable Cell (60° C., 40% w/w, Day 28): 320 cells/mL
- The Number of Viable Cell (60° C., 40% w/w, Day 56): 0 cells/mL
- The Number of Viable Cell (60° C., 50% w/w, Day 0): 10000 or more cells/mL
- The Number of Viable Cell (60° C., 50% w/w, Day 3): 100 cells/mL
- The Number of Viable Cell (60° C., 50% w/w, Day 7): 150 cells/mL
- The Number of Viable Cell (60° C., 50% w/w, Day 14): 200 cells/mL
- The Number of Viable Cell (60° C., 50% w/w, Day 28): 330 cells/mL
- The Number of Viable Cell (60° C., 50% w/w, Day 56): 0 cells/mL
- The Number of Viable Cell (60° C., 60% w/w, Day 0): 10000 or more cells/mL
- The Number of Viable Cell (60° C., 60% w/w, Day 3): 130 cells/mL
- The Number of Viable Cell (60° C., 60% w/w, Day 7): 100 cells/mL
- The Number of Viable Cell (60° C., 60% w/w, Day 14): 150 cells/mL
- The Number of Viable Cell (60° C., 60% w/w, Day 28): 120 cells/mL
- The Number of Viable Cell (60° C., 60% w/w, Day 56): 0 cells/mL
- time after which all the cells died (75° C.): 14 days
- The Number of Viable Cell (75° C., 30% w/w, Day 0): 10000 or more cells/mL
- The Number of Viable Cell (75° C., 30% w/w, Day 3): 350 cells/mL
- The Number of Viable Cell (75° C., 30% w/w, Day 7): 340 cells/mL
- The Number of Viable Cell (75° C., 30% w/w, Day 14): 0 cells/mL
- The Number of Viable Cell (75° C., 30% w/w, Day 28): 0 cells/mL
- The Number of Viable Cell (75° C., 30% w/w, Day 56): 0 cells/mL
- The Number of Viable Cell (75° C., 40% w/w, Day 0): 10000 or more cells/mL
- The Number of Viable Cell (75° C., 40% w/w, Day 3): 330 cells/mL
- The Number of Viable Cell (75° C., 40% w/w, Day 7): 490 cells/mL
- The Number of Viable Cell (75° C., 40% w/w, Day 14): 0 cells/mL
- The Number of Viable Cell (75° C., 40% w/w, Day 28): 0 cells/mL
- The Number of Viable Cell (75° C., 40% w/w, Day 56): 0 cells/mL
- The Number of Viable Cell (75° C., 50% w/w, Day 0): 10000 or more cells/mL
- The Number of Viable Cell (75° C., 50% w/w, Day 3): 220 cells/mL
- The Number of Viable Cell (75° C., 50% w/w, Day 7): 590 cells/mL
- The Number of Viable Cell (75° C., 50% w/w, Day 14): 0 cells/mL
- The Number of Viable Cell (75° C., 50% w/w, Day 28): 0 cells/mL
- The Number of Viable Cell (75° C., 50% w/w, Day 56): 0 cells/mL
- The Number of Viable Cell (75° C., 60% w/w, Day 0): 10000 or more cells/mL
